Experimental data as given in patent publication US4356183A, “Antihypertensive 4-thiazolidinecarboxylic acids (pyridyl derivatives)” (Santen Pharmaceutical Co., Ltd., priority 1978, dated 1982).
Like-named read-outs stand apart in the source and are kept apart here.

Tests used:
[1] = tested on: contractile response of isolated guinea pig ileum to angiotensin I; assay: Inhibition of contractile response of isolated guinea pig ileum to angiotensin I; assay type: cell-based; settings: angiotensin I 0.1 μg/ml, compound added 5 min before, 30° C., read-out: Angiotensin I IC50 (50% inhibition of angiotensin I activity inducing the contraction of guinea pig ileum)
From the text: As the method of measurement of angiotensin I-converting enzyme activity, bioassay for the contractile response of isolated smooth muscle or the pressor response of normal animals and biochemical assay for the enzyme isolated from lung or other organs of animals are known. The former is found more advantageous than the latter for the examination of the convertion of angiotensin I to angiotensin II in vivo.
In the present study, therefore, we adopted the bioassay for contractile response of isolated guinea pig ileum to angiotensin I.
(§1) Measurement of inhibitory activity of angiotensin I-converting enzyme
(§2) Isolated guinea pig ileum was suspended in the organ bath containing 20 ml of Tyrode's solution of 30° C. gassed with 95% O2 +5% CO2. The contraction induced by the addition of angiotensin I (0.1 μg/ml) at intervals of 10 minutes was recorded on a recticorder (Nihon Koden) for 90 seconds using FD pick up (ST-1T-H, Nihon Koden).
(§3) The test compounds were added to the bath 5 minutes before the addition of angiotensin I.
The inhibitory activity of angiotensin I-converting enzyme was calculated by the following formula. [formula] A: contractile intensity of angiotensin I before addition of the compound B: contractile intensity of angiotensin I after addition of the compound

[2] = tested on: contractile response to bradykinin (isolated guinea pig ileum); assay: Augmentation of contractile response of isolated guinea pig ileum to bradykinin; assay type: cell-based; settings: bradykinin 0.005 μg/ml, compound added 5 min before, 30° C., read-out: Bradykinin AC50 (50% augmentation of bradykinin activity inducing the contraction of guinea pig ileum)
Method: as §2, §3
From the fact that kininase II, which destroys bradykinin having contractive action on isolated guinea pig ileum, is thought to be identical with angiotensin I-converting enzyme, augmentation of the contractile response to bradykinin by test compounds was examined by using bradykinin (0.005 μg/ml) in place of angiotensin I according to the above mentioned method.

[3] = molecular target: T1, angiotensin I-converting enzyme (Oryctolagus cuniculus, UniProt P12822); assay: Inhibition of angiotensin I-converting enzyme by spectrophotometry (HHL substrate); assay type: biochemical; settings: enzyme from rabbit lung; 5 mM HHL; pH 8.3; 37° C., 30 min
T1 construct: angiotensin I-converting enzyme extracted from rabbit lung; from tissue; host or cells: rabbit lung
T1 sequence (P12822 34-1310): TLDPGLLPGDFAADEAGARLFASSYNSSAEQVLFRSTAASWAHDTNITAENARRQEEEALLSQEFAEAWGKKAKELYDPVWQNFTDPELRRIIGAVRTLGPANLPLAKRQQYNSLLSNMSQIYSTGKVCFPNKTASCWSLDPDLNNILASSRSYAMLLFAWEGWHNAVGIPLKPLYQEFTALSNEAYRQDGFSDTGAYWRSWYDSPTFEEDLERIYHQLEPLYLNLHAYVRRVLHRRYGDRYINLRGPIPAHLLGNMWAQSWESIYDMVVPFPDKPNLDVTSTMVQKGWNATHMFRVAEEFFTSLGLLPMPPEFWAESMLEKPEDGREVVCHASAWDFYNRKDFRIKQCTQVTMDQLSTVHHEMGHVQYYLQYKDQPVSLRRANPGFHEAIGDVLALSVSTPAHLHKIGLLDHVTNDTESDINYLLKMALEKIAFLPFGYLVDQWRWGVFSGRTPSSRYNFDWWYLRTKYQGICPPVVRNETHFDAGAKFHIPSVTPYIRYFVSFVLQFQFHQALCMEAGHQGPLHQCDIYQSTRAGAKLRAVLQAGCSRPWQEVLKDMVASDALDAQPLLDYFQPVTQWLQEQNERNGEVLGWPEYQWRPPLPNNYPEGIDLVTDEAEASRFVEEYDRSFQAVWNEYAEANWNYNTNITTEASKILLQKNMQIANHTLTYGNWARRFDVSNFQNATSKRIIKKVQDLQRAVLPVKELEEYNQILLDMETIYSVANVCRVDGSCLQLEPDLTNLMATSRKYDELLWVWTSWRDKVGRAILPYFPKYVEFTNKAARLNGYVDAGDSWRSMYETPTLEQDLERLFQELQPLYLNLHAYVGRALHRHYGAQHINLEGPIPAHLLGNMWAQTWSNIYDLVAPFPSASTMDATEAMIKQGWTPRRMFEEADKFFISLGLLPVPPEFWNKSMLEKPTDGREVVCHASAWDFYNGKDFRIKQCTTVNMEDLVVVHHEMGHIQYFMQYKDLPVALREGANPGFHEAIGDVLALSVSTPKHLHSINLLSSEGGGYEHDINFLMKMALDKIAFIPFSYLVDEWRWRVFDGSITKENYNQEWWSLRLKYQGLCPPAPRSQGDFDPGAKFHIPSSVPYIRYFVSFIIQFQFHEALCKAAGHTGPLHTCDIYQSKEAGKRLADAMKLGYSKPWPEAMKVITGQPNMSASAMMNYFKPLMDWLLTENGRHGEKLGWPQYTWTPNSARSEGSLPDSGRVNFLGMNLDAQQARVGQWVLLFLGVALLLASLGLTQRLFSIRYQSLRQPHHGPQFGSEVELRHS
Method: That is, the absorbance of hippuric acid was measured, which is liberated by incubating hippuryl-L-histidyl-L-leucine (HHL) as substrate in the presence of angiotensin I-converting enzyme extracted from rabbit lung.
as §1
The reaction mixture is as follows:
100 mM phosphate buffer (pH 8.3)
10^-3 ~10^-9 M enzyme inhibitor
0.25 ml of the above mixture was incubated at 37° C. for 30 minutes and the reaction was stopped by adding 0.25 ml of 1 N hydrochloric acid. To this solution, 1.5 ml of ethyl acetate was added in order to extract hippuric acid. 1.0 ml of ethyl acetate layer was collected and evaporated to dryness, and the residue obtained was dissolved in 1.0 ml of water.
The inhibitory activity of angiotensin I-converting enzyme was calculated by the following formula: [formula]

[4] = tested on: pressor response to angiotensin I; assay: Inhibition of pressor response to angiotensin I in rats after oral administration; assay type: in vivo, rat (male Wistar); settings: angiotensin I 300 ng/kg i.v.
Method: Male Wistar strain rats weighing about 200-300 g were used.
Under ether anesthesia, polyethylene cannulae are inserted into carotid arthery and jugular vein. The cannula to carotid artery is connected to an electric transducer, while the cannula to jugular vein is connected to an apparatus for continuous infusion. After the complete recovery from anesthesia, angiotensin I is infused intravenously in a dose of 300 ng/kg by the apparatus for continuous infusion, and the pressor response is recorded by polygraph (Nihon Koden, RM-150).
The compounds of this invention suspended in 0.5% tragacanth solution are administered orally in a dose of 0.3 ml per 100 g of body weight, and the pressor response to angiotensin I infused intravenously is measured with time.
The inhibitory activity of the compounds against angiotensin I-converting enzyme is expressed as the percent inhibition of pressor response to angiotensin I.

Row | IC50 ([1]; Cavia porcellus) | IC50 [3] | SMILES | AC50 ([2]; Cavia porcellus) | further results
1 | 700 nM | 3600 nM | O=C(O)[C@@H]1CSC(c2ccccc2Cl)N1C(=O)CCS (stereo partly shown) [Compound 24] | 16 nM | 
2 |  | 310 nM | C[C@H](CS)C(=O)N1C(Cc2ccccc2)SC[C@H]1C(=O)O (single isomer, unassigned) [Compound 10b] |  | IC50 [1]: 580 nM; AC50 [2]: 10 nM
3 | 520 nM | 2600 nM | O=C(O)[C@@H]1CSC(c2ccc(O)c(O)c2)N1C(=O)CCS (stereo partly shown) [Compound 58] | 5.8 nM | 
4 | 460 nM | 1200 nM | O=C(O)[C@@H]1CSC(c2ccc(O)cc2)N1C(=O)CCS (stereo partly shown) [Compound 56] | 5.5 nM | 
5 | 36 nM | 93 nM | COc1cccc(C2SC[C@@H](C(=O)O)N2C(=O)CCS)c1O (stereo partly shown) [Compound 73] | 1.1 nM | 
6 | 240 nM | 450 nM | O=C(O)[C@@H]1CSC(c2ccccc2)N1C(=O)CCS (stereo partly shown) [Compound 16] | 2.6 nM | 
7 | 71 nM | 210 nM | O=C(O)[C@@H]1CSC(c2cccc(O)c2)N1C(=O)CCS (stereo partly shown) [Compound 52] | 1.5 nM | 
8 | 900 nM | 13000 nM | O=C(O)[C@@H]1CSC(c2ccccc2)N1C(=O)CS (stereo partly shown) [Compound 12] | 19 nM | 
9 | 480 nM | 3200 nM | CC(C)=CCCC(C)CC1SC[C@@H](C(=O)O)N1C(=O)[C@H](C)CS (stereo partly shown) [Compound 2] | 19 nM | 
10 |  | 370 nM | O=C(O)[C@@H]1CSC(CCS)N1C(=O)CCS (single isomer, unassigned) [Compound 6b] |  | IC50 [1]: 300 nM; AC50 [2]: 3.7 nM
11 | 810 nM | 2800 nM | C[C@H](CS)C(=O)N1C(Cc2ccccc2)SC[C@H]1C(=O)O (single isomer, unassigned) [Compound 10a] | 13 nM | 

Continued, molecule first:

Row | SMILES | IC50 ([1]; Cavia porcellus) | IC50 [3] | AC50 ([2]; Cavia porcellus) | further results
12 | C[C@H](CS)C(=O)N1C(C2CCCCC2)SC[C@H]1C(=O)O (stereo partly shown) [Compound 4] | 50 nM | 120 nM | 2 nM | Inhibition (%) of pressor response to angiotensin I, 5 min ([4]; 5 min, dose: 3, 45, 49 1.8 mg/kg, 4, 46 1.3, 50 1.4, 76 2.0, 77 1.5): 46.7%; Inhibition (%) of pressor response to angiotensin I, 15 min ([4]; 15 min, dose: 3, 45, 49 1.8 mg/kg, 4, 46 1.3, 50 1.4, 76 2.0, 77 1.5): 46.5%; Inhibition (%) of pressor response to angiotensin I, 25 min ([4]; 25 min, dose: 3, 45, 49 1.8 mg/kg, 4, 46 1.3, 50 1.4, 76 2.0, 77 1.5): 37.2%; Inhibition (%) of pressor response to angiotensin I, 35 min ([4]; 35 min, dose: 3, 45, 49 1.8 mg/kg, 4, 46 1.3, 50 1.4, 76 2.0, 77 1.5): 32.2%; Inhibition (%) of pressor response to angiotensin I, 45 min ([4]; 45 min, dose: 3, 45, 49 1.8 mg/kg, 4, 46 1.3, 50 1.4, 76 2.0, 77 1.5): 28.8%; Inhibition (%) of pressor response to angiotensin I, 55 min ([4]; 55 min, dose: 3, 45, 49 1.8 mg/kg, 4, 46 1.3, 50 1.4, 76 2.0, 77 1.5): 27.5%; Inhibition (%) of pressor response to angiotensin I, 65 min ([4]; 65 min, dose: 3, 45, 49 1.8 mg/kg, 4, 46 1.3, 50 1.4, 76 2.0, 77 1.5): 27.5%; Inhibition (%) of pressor response to angiotensin I, 75 min ([4]; 75 min, dose: 3, 45, 49 1.8 mg/kg, 4, 46 1.3, 50 1.4, 76 2.0, 77 1.5): 13.8%; Inhibition (%) of pressor response to angiotensin I, 85 min ([4]; 85 min, dose: 3, 45, 49 1.8 mg/kg, 4, 46 1.3, 50 1.4, 76 2.0, 77 1.5): 14.5%; Inhibition (%) of pressor response to angiotensin I, 95 min ([4]; 95 min, dose: 45, 49 1.8 mg/kg, 4, 46 1.3, 50 1.4, 76 2.0, 77 1.5): 10.3%
13 | COc1ccccc1C1SC[C@@H](C(=O)O)N1C(=O)[C@H](C)CS (stereo partly shown) [Compound 64] | 500 nM | 420 nM | 8 nM | 
14 | C[C@H](CS)C(=O)N1C(c2cccc3ccccc23)SC[C@H]1C(=O)O (stereo partly shown) [Compound 83] | 360 nM | 1300 nM | 13 nM | 
15 | C[C@H](CS)C(=O)N1C(c2cccs2)SC[C@H]1C(=O)O (stereo partly shown) [Compound 91] | 700 nM | 370 nM | 10 nM | 
16 | COc1cc(C2SC[C@@H](C(=O)O)N2C(=O)[C@H](C)CS)cc(OC)c1OC (stereo partly shown) [Compound 71] | 410 nM | 390 nM | 9.4 nM | 
17 | COc1ccc(C2SC[C@@H](C(=O)O)N2C(=O)[C@H](C)CS)cc1 (stereo partly shown) [Compound 68] | 88 nM | 750 nM | 2.1 nM | 
18 | C[C@H](CS)C(=O)N1C(c2cccc([N+](=O)[O-])c2)SC[C@H]1C(=O)O (stereo partly shown) [Compound 34] | 180 nM | 400 nM | 2.5 nM | 
19 | C[C@H](CS)C(=O)N1C(c2ccncc2)SC[C@H]1C(=O)O (stereo partly shown) [Compound 95] | 83 nM | 110 nM | 3.1 nM | 
20 | COc1cc(C2SC[C@@H](C(=O)O)N2C(=O)[C@H](C)CS)ccc1O (stereo partly shown) [Compound 79] | 210 nM | 1300 nM | 3.2 nM | 
21 | Cc1ccc(C2SC[C@@H](C(=O)O)N2C(=O)[C@H](C)CS)o1 (stereo partly shown) [Compound 87] | 460 nM | 730 nM | 2.6 nM | 
22 | C[C@H](CS)C(=O)N1C(c2cccc(O)c2)SC[C@H]1C(=O)O (stereo partly shown) [Compound 54] | 150 nM | 230 nM | 1.7 nM | 
